molecular target: Cholinesterase (Homo sapiens, UniProt P06276); assay: Inhibition of human serum BuChE using acetylcholine iodide as substrate incubated for 15 mins by Ellman's method
Sequence (P06276 whole entry): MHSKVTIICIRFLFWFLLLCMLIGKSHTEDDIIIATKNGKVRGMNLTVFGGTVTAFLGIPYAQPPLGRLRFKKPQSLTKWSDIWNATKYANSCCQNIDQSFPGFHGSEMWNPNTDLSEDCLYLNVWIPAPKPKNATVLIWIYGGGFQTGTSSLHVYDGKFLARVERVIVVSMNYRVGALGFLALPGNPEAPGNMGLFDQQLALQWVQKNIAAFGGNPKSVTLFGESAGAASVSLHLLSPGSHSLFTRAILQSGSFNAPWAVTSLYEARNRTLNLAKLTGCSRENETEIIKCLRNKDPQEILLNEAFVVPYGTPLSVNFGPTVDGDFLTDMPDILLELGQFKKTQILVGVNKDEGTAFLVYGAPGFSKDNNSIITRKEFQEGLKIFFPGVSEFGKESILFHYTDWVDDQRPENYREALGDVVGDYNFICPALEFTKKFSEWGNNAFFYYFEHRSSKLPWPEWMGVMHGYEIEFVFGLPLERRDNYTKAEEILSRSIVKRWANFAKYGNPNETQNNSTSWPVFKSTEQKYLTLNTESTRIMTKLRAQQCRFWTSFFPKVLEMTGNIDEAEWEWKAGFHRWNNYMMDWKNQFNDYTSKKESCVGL

SMILES	IC50
CCN(C)C(=O)Oc1ccc(/C=C/C(=O)N2CCc3ccccc3C2)cc1	3.7 µM
CCN(CC)C(=O)Oc1ccc(/C=C/C(=O)N2CCC(Cc3ccccc3)CC2)cc1OC	5.1 µM
CCN(CC)C(=O)/C=C/c1ccc(OC(=O)N(C)C)c(OC)c1	15.2 µM
COc1cc(/C=C/C(=O)N2CCCCC2)ccc1OC(=O)N(c1ccccc1)c1ccccc1	22.9 µM
COc1cc(/C=C/C(=O)N2CCN(Cc3ccccc3)CC2)ccc1OC(=O)N(c1ccccc1)c1ccccc1	22.3 µM
COc1cc(/C=C/C(=O)N2CCN(Cc3ccccc3)CC2)ccc1OC(=O)N(C)C	14.2 µM

molecular target: T1, Amine oxidase [flavin-containing] B (Homo sapiens, UniProt P27338); assay: Inhibition of recombinant human MAO-B
T1 sequence (P27338 whole entry): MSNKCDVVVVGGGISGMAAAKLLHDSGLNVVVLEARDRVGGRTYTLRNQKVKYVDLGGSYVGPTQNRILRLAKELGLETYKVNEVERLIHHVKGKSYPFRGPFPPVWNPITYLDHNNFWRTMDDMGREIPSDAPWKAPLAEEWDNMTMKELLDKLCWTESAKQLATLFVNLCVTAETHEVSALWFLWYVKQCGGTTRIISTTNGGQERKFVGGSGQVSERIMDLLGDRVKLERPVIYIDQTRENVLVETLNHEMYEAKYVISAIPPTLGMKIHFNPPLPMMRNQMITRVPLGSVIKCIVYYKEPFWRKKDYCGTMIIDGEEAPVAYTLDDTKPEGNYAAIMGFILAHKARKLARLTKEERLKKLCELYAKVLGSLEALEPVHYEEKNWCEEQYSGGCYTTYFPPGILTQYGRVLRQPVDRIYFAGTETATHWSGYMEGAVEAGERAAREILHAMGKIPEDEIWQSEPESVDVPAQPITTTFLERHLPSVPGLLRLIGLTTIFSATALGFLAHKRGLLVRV

SMILES	IC50
CCN(C)C(=O)Oc1ccc(/C=C/C(=O)N2CCc3ccccc3C2)cc1	8.3 µM
CCN(CC)C(=O)Oc1ccc(/C=C/C(=O)N2CCC(Cc3ccccc3)CC2)cc1OC	5.13 µM
CCN(CC)C(=O)/C=C/c1ccc(OC(=O)N(C)C)c(OC)c1	31.8 µM
COc1cc(/C=C/C(=O)N2CCCCC2)ccc1OC(=O)N(c1ccccc1)c1ccccc1	21.8 µM
COc1cc(/C=C/C(=O)N2CCN(Cc3ccccc3)CC2)ccc1OC(=O)N(c1ccccc1)c1ccccc1	31.8 µM
COc1cc(/C=C/C(=O)N2CCN(Cc3ccccc3)CC2)ccc1OC(=O)N(C)C	16.7 µM

molecular target: Acetylcholinesterase (Electrophorus electricus, UniProt O42275); assay: Inhibition of Electrophorus electricus AChE using acetylcholine iodide as substrate incubated for 15 mins by Ellman's method
Sequence (O42275 whole entry): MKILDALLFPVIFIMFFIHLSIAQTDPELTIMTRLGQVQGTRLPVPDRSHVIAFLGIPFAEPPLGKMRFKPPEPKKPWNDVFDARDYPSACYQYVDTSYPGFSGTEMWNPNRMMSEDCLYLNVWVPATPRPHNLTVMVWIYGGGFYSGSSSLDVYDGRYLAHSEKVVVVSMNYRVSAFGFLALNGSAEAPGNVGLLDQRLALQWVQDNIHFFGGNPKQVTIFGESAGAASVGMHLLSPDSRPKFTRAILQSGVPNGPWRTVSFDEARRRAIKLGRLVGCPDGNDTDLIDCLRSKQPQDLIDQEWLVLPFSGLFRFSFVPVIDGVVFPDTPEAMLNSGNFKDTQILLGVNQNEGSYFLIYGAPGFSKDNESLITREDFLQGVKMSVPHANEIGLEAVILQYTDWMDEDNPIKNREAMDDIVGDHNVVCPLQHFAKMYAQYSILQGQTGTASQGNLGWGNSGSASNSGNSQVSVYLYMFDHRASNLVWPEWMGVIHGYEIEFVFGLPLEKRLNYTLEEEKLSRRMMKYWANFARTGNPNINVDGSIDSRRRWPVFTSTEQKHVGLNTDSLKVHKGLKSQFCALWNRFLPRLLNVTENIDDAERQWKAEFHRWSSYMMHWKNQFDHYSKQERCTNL

SMILES	IC50
CCN(C)C(=O)Oc1ccc(/C=C/C(=O)N2CCc3ccccc3C2)cc1	17.7 µM
CCN(CC)C(=O)Oc1ccc(/C=C/C(=O)N2CCC(Cc3ccccc3)CC2)cc1OC	25.6 µM
CCN(CC)C(=O)/C=C/c1ccc(OC(=O)N(C)C)c(OC)c1	17.8 µM
COc1cc(/C=C/C(=O)N2CCCCC2)ccc1OC(=O)N(c1ccccc1)c1ccccc1	21.8 µM
COc1cc(/C=C/C(=O)N2CCN(Cc3ccccc3)CC2)ccc1OC(=O)N(c1ccccc1)c1ccccc1	89.8 µM
COc1cc(/C=C/C(=O)N2CCN(Cc3ccccc3)CC2)ccc1OC(=O)N(C)C	22.7 µM

species on record: Homo sapiens; assay: Selectivity index, ratio of IC50 for human erythrocytes Ache to IC50 for human serum BuChe

SMILES	Ratio IC50
CCN(C)C(=O)Oc1ccc(/C=C/C(=O)N2CCc3ccccc3C2)cc1	1.8
CCN(CC)C(=O)Oc1ccc(/C=C/C(=O)N2CCC(Cc3ccccc3)CC2)cc1OC	3.9
CCN(CC)C(=O)/C=C/c1ccc(OC(=O)N(C)C)c(OC)c1	0.86
COc1cc(/C=C/C(=O)N2CCCCC2)ccc1OC(=O)N(c1ccccc1)c1ccccc1	1.2
COc1cc(/C=C/C(=O)N2CCN(Cc3ccccc3)CC2)ccc1OC(=O)N(c1ccccc1)c1ccccc1	1.3
COc1cc(/C=C/C(=O)N2CCN(Cc3ccccc3)CC2)ccc1OC(=O)N(C)C	1.7

molecular target: Cholinesterase (Equus caballus, UniProt P81908); assay: Inhibition of equine serum BuChE using BTC as substrate after 15 mins by Ellman's method
Sequence (P81908 whole entry): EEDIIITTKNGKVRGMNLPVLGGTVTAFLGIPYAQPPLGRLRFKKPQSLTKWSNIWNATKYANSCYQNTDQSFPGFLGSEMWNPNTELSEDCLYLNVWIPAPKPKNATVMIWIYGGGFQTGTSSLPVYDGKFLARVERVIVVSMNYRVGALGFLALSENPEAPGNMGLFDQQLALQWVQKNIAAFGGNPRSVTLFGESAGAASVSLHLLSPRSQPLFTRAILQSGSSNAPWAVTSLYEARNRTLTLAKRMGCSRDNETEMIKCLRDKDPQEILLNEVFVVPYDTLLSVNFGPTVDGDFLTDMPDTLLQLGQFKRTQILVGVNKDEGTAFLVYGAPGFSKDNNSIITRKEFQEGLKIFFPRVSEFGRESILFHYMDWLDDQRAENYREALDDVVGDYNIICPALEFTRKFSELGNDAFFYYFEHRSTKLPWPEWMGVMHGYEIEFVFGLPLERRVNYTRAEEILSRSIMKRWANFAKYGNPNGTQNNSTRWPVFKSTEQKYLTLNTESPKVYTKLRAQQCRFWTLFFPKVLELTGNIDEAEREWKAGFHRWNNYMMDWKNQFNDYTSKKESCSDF

SMILES	IC50
CCN(C)C(=O)Oc1ccc(/C=C/C(=O)N2CCc3ccccc3C2)cc1	3.8 µM
CCN(CC)C(=O)Oc1ccc(/C=C/C(=O)N2CCC(Cc3ccccc3)CC2)cc1OC	2.8 µM
CCN(CC)C(=O)/C=C/c1ccc(OC(=O)N(C)C)c(OC)c1	19.2 µM
COc1cc(/C=C/C(=O)N2CCCCC2)ccc1OC(=O)N(c1ccccc1)c1ccccc1	98.5 µM
COc1cc(/C=C/C(=O)N2CCN(Cc3ccccc3)CC2)ccc1OC(=O)N(c1ccccc1)c1ccccc1	> 100 µM
COc1cc(/C=C/C(=O)N2CCN(Cc3ccccc3)CC2)ccc1OC(=O)N(C)C	12.1 µM

species on record: Homo sapiens; assay: Selectivity index, ratio of IC50 for recombinant human MAO-A to IC50 for recombinant human MAO-B

SMILES	Ratio IC50
CCN(C)C(=O)Oc1ccc(/C=C/C(=O)N2CCc3ccccc3C2)cc1	11.7
CCN(CC)C(=O)Oc1ccc(/C=C/C(=O)N2CCC(Cc3ccccc3)CC2)cc1OC	1.5
CCN(CC)C(=O)/C=C/c1ccc(OC(=O)N(C)C)c(OC)c1	0.97
COc1cc(/C=C/C(=O)N2CCCCC2)ccc1OC(=O)N(c1ccccc1)c1ccccc1	2.1
COc1cc(/C=C/C(=O)N2CCN(Cc3ccccc3)CC2)ccc1OC(=O)N(c1ccccc1)c1ccccc1	0.5
COc1cc(/C=C/C(=O)N2CCN(Cc3ccccc3)CC2)ccc1OC(=O)N(C)C	2.3

molecular target: Amyloid-beta precursor protein (Homo sapiens) (UniProt P05067); assay: Inhibition of self-induced Amyloid beta (1 to 42 residues) (unknown origin) aggregation at 25 uM measured after 24 hrs by thioflavin T-based fluorimetric assay relative to control
Sequence (P05067 whole entry, the tested form may be a part): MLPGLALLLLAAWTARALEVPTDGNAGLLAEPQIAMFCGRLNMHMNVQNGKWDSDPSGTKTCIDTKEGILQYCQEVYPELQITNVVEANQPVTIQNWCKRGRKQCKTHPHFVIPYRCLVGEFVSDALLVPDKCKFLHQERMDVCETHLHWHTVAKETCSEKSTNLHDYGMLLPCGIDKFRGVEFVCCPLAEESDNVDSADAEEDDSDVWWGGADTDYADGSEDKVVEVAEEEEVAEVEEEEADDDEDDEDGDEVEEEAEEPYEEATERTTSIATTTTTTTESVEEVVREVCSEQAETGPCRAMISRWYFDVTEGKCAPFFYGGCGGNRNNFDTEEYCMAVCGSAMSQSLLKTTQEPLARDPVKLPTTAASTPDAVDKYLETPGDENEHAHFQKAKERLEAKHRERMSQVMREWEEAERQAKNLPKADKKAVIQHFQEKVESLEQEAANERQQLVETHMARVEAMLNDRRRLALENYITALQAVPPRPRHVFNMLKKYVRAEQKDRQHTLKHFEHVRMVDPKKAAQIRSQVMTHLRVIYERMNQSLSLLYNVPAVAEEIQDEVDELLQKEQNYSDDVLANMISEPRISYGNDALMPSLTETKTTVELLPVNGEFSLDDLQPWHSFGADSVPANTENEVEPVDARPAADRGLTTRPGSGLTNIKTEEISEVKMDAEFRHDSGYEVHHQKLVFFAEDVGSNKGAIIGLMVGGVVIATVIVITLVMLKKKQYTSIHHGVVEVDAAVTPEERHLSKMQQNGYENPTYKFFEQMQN

SMILES	inhibition
CCN(C)C(=O)Oc1ccc(/C=C/C(=O)N2CCc3ccccc3C2)cc1	52.9%
CCN(CC)C(=O)Oc1ccc(/C=C/C(=O)N2CCC(Cc3ccccc3)CC2)cc1OC	49.7%

molecular target: Acetylcholinesterase (Homo sapiens, UniProt P22303); assay: Inhibition of human erythrocytes AChE using acetylcholine iodide as substrate incubated for 15 mins by Ellman's method
Sequence (P22303 whole entry): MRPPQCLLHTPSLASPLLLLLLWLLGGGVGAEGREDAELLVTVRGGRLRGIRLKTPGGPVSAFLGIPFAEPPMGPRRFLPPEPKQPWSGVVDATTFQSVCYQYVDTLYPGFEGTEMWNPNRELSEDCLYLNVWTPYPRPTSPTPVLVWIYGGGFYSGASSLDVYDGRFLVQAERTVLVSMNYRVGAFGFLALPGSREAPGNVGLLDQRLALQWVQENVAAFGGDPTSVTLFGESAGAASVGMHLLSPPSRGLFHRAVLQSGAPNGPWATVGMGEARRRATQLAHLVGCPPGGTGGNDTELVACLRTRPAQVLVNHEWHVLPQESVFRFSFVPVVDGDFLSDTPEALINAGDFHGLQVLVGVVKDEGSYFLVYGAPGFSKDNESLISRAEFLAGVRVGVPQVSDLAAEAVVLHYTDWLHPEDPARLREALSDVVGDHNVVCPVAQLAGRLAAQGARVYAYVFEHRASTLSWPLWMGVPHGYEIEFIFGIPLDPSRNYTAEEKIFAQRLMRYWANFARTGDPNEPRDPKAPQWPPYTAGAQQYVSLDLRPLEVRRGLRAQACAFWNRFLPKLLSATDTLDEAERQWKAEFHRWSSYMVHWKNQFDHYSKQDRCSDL

SMILES	IC50
CCN(C)C(=O)Oc1ccc(/C=C/C(=O)N2CCc3ccccc3C2)cc1	6.8 µM
CCN(CC)C(=O)Oc1ccc(/C=C/C(=O)N2CCC(Cc3ccccc3)CC2)cc1OC	19.7 µM
CCN(CC)C(=O)/C=C/c1ccc(OC(=O)N(C)C)c(OC)c1	13.1 µM
COc1cc(/C=C/C(=O)N2CCCCC2)ccc1OC(=O)N(c1ccccc1)c1ccccc1	27.2 µM
COc1cc(/C=C/C(=O)N2CCN(Cc3ccccc3)CC2)ccc1OC(=O)N(c1ccccc1)c1ccccc1	28.7 µM
COc1cc(/C=C/C(=O)N2CCN(Cc3ccccc3)CC2)ccc1OC(=O)N(C)C	23.5 µM

molecular target: Cholinesterase (Equus caballus) (UniProt P81908); assay: Inhibition of equine serum BuChE at 25 uM using BTC as substrate after 15 mins by Ellman's method relative to control
Sequence (P81908 whole entry): as the sequence (P81908 whole entry) above

SMILES	inhibition
COc1cc(/C=C/C(=O)N2CCCCC2)ccc1OC(=O)N(c1ccccc1)c1ccccc1	20%
COc1cc(/C=C/C(=O)N2CCN(Cc3ccccc3)CC2)ccc1OC(=O)N(c1ccccc1)c1ccccc1	9.7%

tested on: not listed separately; assay: Selectivity index, ratio of IC50 for Electrophorus electricus AChE to IC50 for equine serum BuChE

SMILES	Ratio IC50
CCN(C)C(=O)Oc1ccc(/C=C/C(=O)N2CCc3ccccc3C2)cc1	4.7
CCN(CC)C(=O)Oc1ccc(/C=C/C(=O)N2CCC(Cc3ccccc3)CC2)cc1OC	9.1
CCN(CC)C(=O)/C=C/c1ccc(OC(=O)N(C)C)c(OC)c1	0.93
COc1cc(/C=C/C(=O)N2CCN(Cc3ccccc3)CC2)ccc1OC(=O)N(C)C	1.9

molecular target: T2, Amine oxidase [flavin-containing] A (Homo sapiens, UniProt P21397); assay: Inhibition of recombinant human MAO-A
T2 sequence (P21397 whole entry): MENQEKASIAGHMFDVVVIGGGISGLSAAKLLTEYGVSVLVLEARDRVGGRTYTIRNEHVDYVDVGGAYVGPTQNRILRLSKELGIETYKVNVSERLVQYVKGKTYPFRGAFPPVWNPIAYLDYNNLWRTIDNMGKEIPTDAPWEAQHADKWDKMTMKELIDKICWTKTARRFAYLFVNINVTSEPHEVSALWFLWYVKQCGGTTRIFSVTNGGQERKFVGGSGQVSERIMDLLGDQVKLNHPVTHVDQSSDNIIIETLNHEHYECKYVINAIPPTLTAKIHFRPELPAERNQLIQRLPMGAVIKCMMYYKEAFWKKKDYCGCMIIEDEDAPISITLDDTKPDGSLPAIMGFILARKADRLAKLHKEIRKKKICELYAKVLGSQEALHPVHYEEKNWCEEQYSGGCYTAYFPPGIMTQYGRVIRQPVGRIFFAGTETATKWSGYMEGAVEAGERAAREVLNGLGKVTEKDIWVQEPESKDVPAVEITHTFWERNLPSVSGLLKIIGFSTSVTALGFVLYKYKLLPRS

SMILES	IC50
CCN(C)C(=O)Oc1ccc(/C=C/C(=O)N2CCc3ccccc3C2)cc1	97.3 µM
CCN(CC)C(=O)Oc1ccc(/C=C/C(=O)N2CCC(Cc3ccccc3)CC2)cc1OC	7.8 µM
CCN(CC)C(=O)/C=C/c1ccc(OC(=O)N(C)C)c(OC)c1	30.9 µM
COc1cc(/C=C/C(=O)N2CCCCC2)ccc1OC(=O)N(c1ccccc1)c1ccccc1	46.2 µM
COc1cc(/C=C/C(=O)N2CCN(Cc3ccccc3)CC2)ccc1OC(=O)N(c1ccccc1)c1ccccc1	14.7 µM
COc1cc(/C=C/C(=O)N2CCN(Cc3ccccc3)CC2)ccc1OC(=O)N(C)C	39.1 µM
